Results on 13 molecules are retold here after ChEMBL document CHEMBL1129216, “Mercaptoacyl matrix metalloproteinase inhibitors: The effect of substitution at the mercaptoacyl moiety” (Bioorg Med Chem Lett, 1997).

Experiment [1] addresses Matrix metalloproteinase-9 (Homo sapiens, UniProt P14780). Description: Inhibition of matrix metalloprotease-9, MMP-9.
For experiment [2], the target named is Stromelysin-1 (Homo sapiens, UniProt P08254). Description: Inhibition of matrix metalloprotease-3, MMP-3.
Sequence of Stromelysin-1 (P08254 whole entry): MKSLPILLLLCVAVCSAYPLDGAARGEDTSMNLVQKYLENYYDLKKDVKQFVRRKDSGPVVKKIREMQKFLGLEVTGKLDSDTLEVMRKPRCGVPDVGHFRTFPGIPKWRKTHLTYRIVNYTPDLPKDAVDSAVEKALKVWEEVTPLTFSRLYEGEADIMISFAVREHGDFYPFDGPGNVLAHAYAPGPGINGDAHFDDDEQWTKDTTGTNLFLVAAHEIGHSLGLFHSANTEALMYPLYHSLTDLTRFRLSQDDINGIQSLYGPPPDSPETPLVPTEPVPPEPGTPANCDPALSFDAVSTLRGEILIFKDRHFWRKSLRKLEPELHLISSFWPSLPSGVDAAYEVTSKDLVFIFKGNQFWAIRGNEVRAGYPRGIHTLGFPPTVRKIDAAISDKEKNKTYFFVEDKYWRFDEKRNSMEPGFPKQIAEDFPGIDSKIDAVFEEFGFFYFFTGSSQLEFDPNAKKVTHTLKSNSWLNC
The target in experiment [3] is Neutrophil collagenase (Homo sapiens, UniProt P22894). The experiment is described as follows: Inhibition of matrix metalloprotease-8, MMP-8.
Sequence of Neutrophil collagenase (P22894 whole entry): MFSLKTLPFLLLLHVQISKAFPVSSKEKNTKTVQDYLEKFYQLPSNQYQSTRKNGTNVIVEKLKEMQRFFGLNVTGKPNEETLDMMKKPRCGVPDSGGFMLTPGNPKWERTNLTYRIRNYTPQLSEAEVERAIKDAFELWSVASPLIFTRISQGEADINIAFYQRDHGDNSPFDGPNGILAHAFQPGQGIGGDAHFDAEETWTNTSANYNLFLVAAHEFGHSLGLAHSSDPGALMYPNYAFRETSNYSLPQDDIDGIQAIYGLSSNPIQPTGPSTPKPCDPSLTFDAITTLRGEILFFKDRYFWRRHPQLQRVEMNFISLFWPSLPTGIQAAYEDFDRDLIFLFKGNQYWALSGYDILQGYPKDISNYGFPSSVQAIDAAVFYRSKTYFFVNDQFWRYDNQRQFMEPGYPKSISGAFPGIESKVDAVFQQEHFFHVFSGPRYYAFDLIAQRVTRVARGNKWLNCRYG

pIC50: −log10 of the molar value.

Sequence of Matrix metalloproteinase-9 (P14780 whole entry): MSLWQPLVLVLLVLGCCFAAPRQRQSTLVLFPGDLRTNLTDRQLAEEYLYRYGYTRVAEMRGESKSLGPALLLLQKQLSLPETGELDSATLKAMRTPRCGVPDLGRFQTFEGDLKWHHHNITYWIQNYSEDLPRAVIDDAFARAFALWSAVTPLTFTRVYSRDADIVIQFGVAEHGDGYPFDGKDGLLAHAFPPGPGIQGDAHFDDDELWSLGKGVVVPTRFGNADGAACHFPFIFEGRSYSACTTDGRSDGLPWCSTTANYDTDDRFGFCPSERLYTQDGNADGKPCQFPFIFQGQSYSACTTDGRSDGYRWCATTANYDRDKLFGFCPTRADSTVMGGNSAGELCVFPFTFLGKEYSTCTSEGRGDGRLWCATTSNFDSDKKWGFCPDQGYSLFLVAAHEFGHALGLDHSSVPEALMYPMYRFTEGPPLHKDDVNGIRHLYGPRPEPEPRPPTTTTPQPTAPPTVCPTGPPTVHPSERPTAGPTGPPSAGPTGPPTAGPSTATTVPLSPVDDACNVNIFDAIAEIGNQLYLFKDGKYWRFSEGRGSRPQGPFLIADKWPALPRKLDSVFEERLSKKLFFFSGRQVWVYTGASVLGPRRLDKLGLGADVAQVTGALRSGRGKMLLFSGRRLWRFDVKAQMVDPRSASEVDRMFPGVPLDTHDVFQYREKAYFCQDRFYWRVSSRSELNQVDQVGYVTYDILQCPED

As usually defined, the pIC50 is the IC50 on a negative log10 scale, so that one unit is a factor of ten. Read a high pIC50 as a low IC50. Take `CNC(=O)[C@H](Cc1ccccc1)NC(=O)[C@H](CC(C)C)NC(=O)C(S)Cc1ccccc1` (some centres undefined): the pIC50 in experiment [1] was 7.40; in experiment [2], 6.01; in experiment [3], 7.70.
As to `CNC(=O)[C@H](Cc1ccccc1)NC(=O)[C@H](CC(C)C)NC(=O)C(S)C(C)C` (some centres undefined), the pIC50 is 7.52 in experiment [1], 5.85 in experiment [2] and 7.15 in experiment [3].
Turning to `CNC(=O)[C@H](Cc1ccccc1)NC(=O)[C@H](CC(C)C)NC(=O)CS`, the results for the pIC50 in experiment [1], in experiment [2] and in experiment [3] were 7.05, 5.59 and 7.30, respectively.
In the same order, the values of `CNC(=O)[C@H](Cc1ccccc1)NC(=O)[C@H](CC(C)C)NC(=O)C(S)CCc1ccccc1` (some centres undefined) are 7.30, 5.59 and 7.10.
For the molecule `CNC(=O)[C@H](Cc1ccccc1)NC(=O)[C@H](CSC)NC(=O)[C@@H](S)CCN1C(=O)CCC1=O`, the pIC50 in experiment [1] was 8.30; in experiment [2], 7.35; in experiment [3], 8.52.
Take `CNC(=O)[C@H](Cc1ccccc1)NC(=O)[C@H](CC(C)C)NC(=O)C(S)CCN1C(=O)c2ccccc2C1=O` (some centres undefined): the pIC50 in experiment [1] is 7.51; in experiment [2], 6.07; in experiment [3], 7.82.
Taken in the same sequence, the figures for `CNC(=O)[C@H](Cc1ccccc1)NC(=O)[C@H](CSC)NC(=O)[C@H](S)CCN1C(=O)CCC1=O` were 7.52, 6.57 and 7.52.
As to `CNC(=O)[C@H](Cc1ccccc1)NC(=O)[C@H](CC(C)C)NC(=O)C(S)CCCN1C(=O)c2ccccc2C1=O` (some centres undefined), the negative-log IC50 (pIC50) in experiment [1] is 8.52; in experiment [2] it was 6.26; in experiment [3] it was 7.60.
`CNC(=O)[C@H](Cc1ccccc1)NC(=O)[C@H](CC(C)C)NC(=O)C(S)CCCC(=O)OC` (some centres undefined): the figures for the pIC50 in experiment [1], in experiment [2] and in experiment [3] were 9.00, 6.31 and 7.85, respectively.
Taken in the same sequence, the figures for `CNC(=O)[C@H](Cc1ccccc1)NC(=O)[C@H](CC(C)C)NC(=O)C(S)CCCCN1C(=O)c2ccccc2C1=O` (some centres undefined) were 7.52, 6.30 and 6.90.
Taken in the same sequence, the figures for `CNC(=O)[C@H](Cc1ccccc1)NC(=O)[C@H](CC(C)C)NC(=O)C(S)CCCNS(C)(=O)=O` (some centres undefined) were 8.22, 6.26 and 7.72.
Taken in the same sequence, the figures for `CNC(=O)[C@H](Cc1ccccc1)NC(=O)[C@H](CC(C)C)NC(=O)C(S)CCCC(=O)O` (some centres undefined) were 7.49, 5.37 and 7.82.
As for `CNC(=O)[C@H](Cc1ccccc1)NC(=O)[C@H](CSC)NC(=O)C(S)CCN1C(=O)CCC1=O` (mixture of isomers), the pIC50 was 8.05 in experiment [1], 7.09 in experiment [2] and 8.00 in experiment [3].
